From patent US5444071A, “Quinoline derivatives and use thereof as angiotensin II antagonists” (Imperial Chemical Industries PLC, priority 1989, dated 1995)

Tested on: angiotensin II-induced pressor responses
Assay: Test C: antagonism of angiotensin II-induced pressor responses in rats
Assay type: in vivo
Details: iv, rat, i.v. administration
From the text: The antagonism of one or more of the physiological actions of AII and, in particular, the antagonism of the interaction of AII with the receptors which mediate its effects on a target tissue, may be assessed using one or more of the following, routine laboratory procedures: Test C: This in vivo test involves using terminally-anaesthetised or conscious rats in which an arterial catheter has been implanted under anaesthesia for the measurement of changes in blood pressure. The AII antagonistic effects of the test compound following oral or parenteral administration, are assessed against angiotensin II-induced pressor responses. To ensure that the effect is specific, the effect of the test compound on vasopressin-induced pressor responses may also be determined in the same preparation.

Cc1cc(OCc2ccc(-c3ccccc3-c3nnn[nH]3)cc2)c2ccccc2n1.Cl [Example 7, 2-methyl-4-[(2'-(1H-tetrazol-5-yl)biphenyl-4-yl)methoxy]quinoline hydrochloride]
ED50: 0.5 mg/kg
